Laboratory results published in PMC9499463, “Potent Chlorambucil-Platinum(IV) Prodrugs” (International Journal of Molecular Sciences, 2022).
Values joined by “and” are separate entries in the source; they are usually repeats but may differ in a detail not shown here. Equal values may be shown once.

Tests used:
HT29 colon = test: MTT growth inhibition assay, 72 h; assay type: cell-based, human; details: MTT, 72 h
U87 glioblastoma = test: MTT growth inhibition assay, 72 h; assay type: cell-based, human
MCF-7 breast = test: MTT growth inhibition assay, 72 h; assay type: cell-based, human; details: for GI50: MTT, 72 h
A2780 ovarian = test: MTT growth inhibition assay, 72 h; assay type: cell-based, human
H460 lung = test: MTT growth inhibition assay, 72 h; assay type: cell-based, human
A431 skin = test: MTT growth inhibition assay, 72 h; assay type: cell-based, human
Du145 prostate = test: MTT growth inhibition assay, 72 h; assay type: cell-based, human; details: for GI50: MTT, 72 h
BE2-C neuroblastoma = test: MTT growth inhibition assay, 72 h; assay type: cell-based, human
SJ-G2 glioblastoma = test: MTT growth inhibition assay, 72 h; assay type: cell-based, human
MIA pancreas = test: MTT growth inhibition assay, 72 h; assay type: cell-based, human; details: MTT, 72 h
panel of cell lines = test: MTT growth inhibition assay, 72 h, over the cell line panel; assay type: cell-based, human; details: average over all cell lines tested; read-out: Average GI50 Values
[1] = Stability in solvent systems by HPLC; assay type: physicochemical; details: room temperature
Procedure: The stability of PCLB, 5CLB, and 56CLB was evaluated by HPLC. The complexes were tested in three solvent systems, 10 mM PBS (~7.4 pH), 0.9% NaCl and d.i.H2O/DMSO (50:50). This process was followed for 1 h at room temperature for each complex in each solvent system (Table 3 and Figure S32). However, it is noteworthy that when these complexes are left in solution for more extended periods, reduction to the corresponding platinum(II) species appears inevitable (Figure S33). This is likely influenced by the nature of the coordinated CLB ligand, which is highly susceptible to rapid hydrolysis due to its functional group.
The stability of PCLB, 5CLB, and 56CLB was monitored using an Agilent Technologies 1260 Infinity instrument equipped with a Phenomenex Onyx^TM Monolithic C18-reverse phase column (100 × 4.6 mm, 5 µm pore size). The mobile phase consisted of solvents, A (0.06% TFA in d.i.H2O) and B (0.06% TFA in CH3CN/d.i.H2O (90:10)). An injection volume of 5 µL was utilized and eluted with a 0–100% linear gradient over 15 min with a flow rate of 1 mL/min, at the set wavelengths of 214 and 254 nm. Each complex was dissolved separately in three solvent systems including, 10 mM phosphate-buffered saline (PBS) at ~7.4 pH, 0.9% sodium chloride (NaCl) or standard saline solution and d.i.H2O/DMSO (50:50). Each HPLC run per solvent system was followed for 1 h at room temperature.

[2] = Reduction experiments with ascorbic acid by 1H-NMR and 1D-195Pt-NMR; assay type: physicochemical; details: 10 mM AsA, 10 mM PBS (~7.4 pH), D2O, 37 °C, 1H-NMR
Procedure: Intracellularly, a platinum(IV) complex is reduced into its platinum(II) congener and axial ligands in the presence of biological reducing agents such as AsA or glutathione. This report followed the reduction in PCLB, 5CLB, and 56CLB using ^1H-NMR and 1D-^195Pt-NMR spectroscopy. The method used for the reduction experiments was adapted from the literature with minor modifications. A total of 10 mM PBS (~7.4 pH) was selected as media to mimic physiological conditions, while 10 mM AsA was used as the biological reducing agent. Prior to the reduction experiments, a control was considered where each metal complex was dissolved with PBS in D2O. 1D-^195Pt-NMR was employed within the regions of −2800 and 400 ppm (30 min per region) at 37 °C. Typically, our platinum(II) complexes resonate within the −2800 ppm region (Figures S1–S3), while their platinum(IV) derivatives resonate around the 400 ppm region (Figures S4–S6). A control was required to ensure that the PBS would not interfere in the reduction process of the complexes. From the preliminary 1D-^195Pt-NMR spectra obtained (Figure 11), the state of all complexes was unchanged, and no sign of reduction was observed.
The reduction property of PCLB was monitored for 1 h by ^1H-NMR spectroscopy at 37 °C (Figure 12). Utilizing the resonances of the phenanthroline protons (H2 and H9; H4 and H7; H5 and H6; H3 and H8) from both platinum(II) and (IV) species as a qualitative measure of […], and considering that the resonances of these phenanthroline protons from both platinum(II) and (IV) species were almost equivalent, it is estimated that 40–50% reduction occurs within 10 min. […] A notable observation from the ^1H-NMR experiments is the movement of resonances, particularly the upfield shift of the phenanthroline protons and the downfield shift of the aromatic protons of CLB (Figure 12).
The reduction behavior of PCLB, 5CLB, and 56CLB was monitored using ^1H-NMR and 1D-^195Pt-NMR spectroscopy. A sequence of ^1H-NMR experiments was carried out for 1 h at 37 °C, followed by 1D-^195Pt-NMR within the regions of −2800 and 400 ppm. An amount of 10 mM PBS (~7.4 pH) was transferred to a vial and reduced to dryness through rotary evaporation. AsA (~1 mg) was combined with the metal complex (~5 mg) and transferred to the vial containing the dried PBS. A total of 600 µL of D2O was then added to the vial to dissolve the complex, AsA and the PBS together. Each reaction was followed at 37 °C until the complete reduction in the prodrugs.

Cc1cc2cccnc2c2ncccc12.N[C@H]1CCCC[C@@H]1N.O=C([O-])CCCc1ccc(N(CCCl)CCCl)cc1.O=[N+]([O-])[O-].O=[N+]([O-])[O-].[OH-].[Pt+4] [5CLB, [Pt^IV(5-methyl-1,10-phenanthroline)(S,S-DACH)(CLB)(OH)](NO3)2]
GI50 (HT29 colon): 19 ± 0.0054 nM
GI50 (U87 glioblastoma): 250 ± 0.015 nM
fold by which the cisplatin prodrug incorporating two CLB ligands (Ma et al.) is less potent (MCF-7 breast; MCF-7 cell line): 12 fold
GI50 (MCF-7 breast): 180 ± 0.017 nM
GI50 (A2780 ovarian): 46 ± 0.015 nM
GI50 (H460 lung): 39 ± 0.013 nM
GI50 (A431 skin): 90 ± 0.015 nM
GI50 (Du145 prostate): 14 ± 0.004 nM
GI50 (BE2-C neuroblastoma): 230 ± 0.039 nM
GI50 (SJ-G2 glioblastoma): 180 ± 0.02 nM
GI50 (MIA pancreas): 34 ± 0.005 nM
GI50 (panel of cell lines): 94 ± 0.01 nM
HPLC Peak Areas at 254 nm ([1]; 0.9% NaCl, 30 min): 73.9%
HPLC Peak Areas at 254 nm ([1]; 0.9% NaCl, 1 h): 72.4%
HPLC Peak Areas at 254 nm ([1]; PBS (~7.4 pH), 30 min): 68.8%
HPLC Peak Areas at 254 nm ([1]; PBS (~7.4 pH), 1 h): 67.3%
HPLC Peak Areas at 254 nm ([1]; d.i.H2O/DMSO (50:50), 30 min): 76.5%
HPLC Peak Areas at 254 nm ([1]; d.i.H2O/DMSO (50:50), 1 h): 75.8%
time to reach 50% reduction [2]: approximately 5 min

O=C(CCCc1ccc(N(CCCl)CCCl)cc1)[O][Pt-2]12([OH])([NH2+][C@H]3CCCC[C@@H]3[NH2+]1)[n+]1cccc3ccc4ccc[n+]2c4c31.O=[N+]([O-])[O-].O=[N+]([O-])[O-] [PCLB, [Pt^IV(1,10-phenanthroline)(S,S-DACH)(CLB)(OH)](NO3)2]
GI50 (HT29 colon): 170 ± 0.046 nM
GI50 (U87 glioblastoma): 1200 ± 0.28 nM
fold by which the cisplatin prodrug incorporating two CLB ligands (Ma et al.) is less potent (MCF-7 breast; MCF-7 cell line): 3 fold
GI50 (MCF-7 breast): 680 ± 0.043 nM
GI50 (A2780 ovarian): 300 ± 0.048 nM
GI50 (H460 lung): 460 ± 0.063 nM
GI50 (A431 skin): 510 ± 0.1 nM
GI50 (Du145 prostate): 210 ± 0.12 nM
GI50 (BE2-C neuroblastoma): 440 ± 0.03 nM
GI50 (SJ-G2 glioblastoma): 320 ± 0.04 nM
GI50 (MIA pancreas): 190 ± 0.032 nM
GI50 (panel of cell lines): 423 ± 0.07 nM
HPLC Peak Areas at 254 nm ([1]; 0.9% NaCl, 30 min): 89.4%
HPLC Peak Areas at 254 nm ([1]; 0.9% NaCl, 1 h): 87.5%
HPLC Peak Areas at 254 nm ([1]; PBS (~7.4 pH), 30 min): 85.0%
HPLC Peak Areas at 254 nm ([1]; PBS (~7.4 pH), 1 h): 83.1%
HPLC Peak Areas at 254 nm ([1]; d.i.H2O/DMSO (50:50), 30 min): 93.2%
HPLC Peak Areas at 254 nm ([1]; d.i.H2O/DMSO (50:50), 1 h): 92.4%
state of the complex at 1 h [2]: almost reduced to its platinum(II) congener
time at which the complex started reducing [2]: 5 min

Cc1c(C)c2cccnc2c2ncccc12.N[C@H]1CCCC[C@@H]1N.O=C([O-])CCCc1ccc(N(CCCl)CCCl)cc1.O=[N+]([O-])[O-].O=[N+]([O-])[O-].[OH-].[Pt+4] [56CLB, [Pt^IV(5,6-dimethyl-1,10-phenanthroline)(S,S-DACH)(CLB)(OH)](NO3)2]
GI50 (HT29 colon): 6 nM and 6.1 nM
GI50 (U87 glioblastoma): 93 ± 0.0067 nM
fold more potent than oxaliplatin-CLB prodrug of Qin et al. (MCF-7 breast): ~200 fold
fold by which the cisplatin prodrug incorporating two CLB ligands (Ma et al.) is less potent (MCF-7 breast; MCF-7 cell line): 35 fold
fold more potent than cisplatin-CLB prodrug of Qin et al. (MCF-7 breast; MCF-7 cell line): about 63 fold
GI50 (MCF-7 breast): 63 ± 0.015 nM
GI50 (A2780 ovarian): 21 ± 0.0047 nM
GI50 (H460 lung): 13 ± 0.0056 nM
GI50 (A431 skin): 34 ± 0.0037 nM
fold increase in potency compared to CLB (Du145 prostate; Du145 prostate cell line): 10,000 fold
fold more potent than cisplatin (Du145 prostate; Du145 prostate cell line): at least 440 fold
GI50 (Du145 prostate): 3 nM and 2.7 nM
GI50 (BE2-C neuroblastoma): 140 ± 0.012 nM
GI50 (SJ-G2 glioblastoma): 130 ± 0.03 nM
GI50 (MIA pancreas): 11 ± 0.003 nM
GI50 (panel of cell lines): 40 nM and 44 nM
HPLC Peak Areas at 254 nm ([1]; 0.9% NaCl, 30 min): 84.6%
HPLC Peak Areas at 254 nm ([1]; 0.9% NaCl, 1 h): 82.5%
HPLC Peak Areas at 254 nm ([1]; PBS (~7.4 pH), 30 min): 78.2%
HPLC Peak Areas at 254 nm ([1]; PBS (~7.4 pH), 1 h): 75.2%
HPLC Peak Areas at 254 nm ([1]; d.i.H2O/DMSO (50:50), 30 min): 85.0%
HPLC Peak Areas at 254 nm ([1]; d.i.H2O/DMSO (50:50), 1 h): 84.3%
time to reach 50% reduction [2]: approximately 5 min
